Experimental data as given in US9555039B2, “Piperidine derivatives and compositions for the inhibition of nicotinamide phosphoribosyltransferase (NAMPT)” (Forma TM, LLC., priority 2011, dated 2017).

Columns and labels:
[1] = molecular target: T1, Recombinant His-tagged NAMPT (Homo sapiens, UniProt P43490); experiment: Biochemical inhibition assay: NAMPT enzymatic reaction, NMN quantified by mass spectrometry; settings: 33 nM NAMPT, 1 μM NAM, 100 μM PRPP, 2.5 mM ATP, 30 minutes at room temperature; read-out: Biochem IC50
T1 construct: His; host or cells: E. coli
Summary of the method: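 Reaction 30 min at room temperature with 1 μM NAM, 100 μM PRPP, 2.5 mM ATP (final), quenched with formic acid. NMN quantified by RapidFire electrospray MS, normalized to L-cystathionine; IC50 from percent inhibition versus DMSO.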

A2780 cells = experiment: In-vitro cell proliferation assay (SRB, 72 hours); type: cell-based; settings: Homo sapiens, sulforhodamine B (SRB) assay
Summary of the method: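 Background from media-only plate subtracted; inhibition relative to DMSO-treated cells, value derived by interpolation between two concentrations.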

T1 sequence (P43490 whole entry): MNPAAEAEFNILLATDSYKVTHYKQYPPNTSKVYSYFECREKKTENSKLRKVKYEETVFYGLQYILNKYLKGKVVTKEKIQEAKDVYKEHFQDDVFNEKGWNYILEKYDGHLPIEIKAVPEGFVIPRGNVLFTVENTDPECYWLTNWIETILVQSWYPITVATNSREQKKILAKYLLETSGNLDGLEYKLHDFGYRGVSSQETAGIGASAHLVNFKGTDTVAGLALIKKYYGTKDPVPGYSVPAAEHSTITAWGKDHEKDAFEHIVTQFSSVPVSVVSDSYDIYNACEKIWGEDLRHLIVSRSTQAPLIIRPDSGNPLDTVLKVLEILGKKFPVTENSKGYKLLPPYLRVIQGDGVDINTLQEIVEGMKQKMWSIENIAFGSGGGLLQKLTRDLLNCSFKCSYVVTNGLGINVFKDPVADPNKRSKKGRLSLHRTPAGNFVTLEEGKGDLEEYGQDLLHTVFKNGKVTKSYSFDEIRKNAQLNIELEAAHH

COc1ccc(OC)c(C(=O)N2CCC(CCCCNC(=O)c3cc4cnccc4[nH]3)CC2)c1 [N-(4-{1-[(2,5-dimethoxyphenyl)carbonyl]piperidin-4-yl}butyl)-1H-pyrrolo[3,2-c]pyridine-2-carboxamide]
IC50 [1]: 15.5 nM
IC50 (A2780 cells): 2.2 nM

COc1ccc(OC)c(C(=O)N2CCC(CCCCNC(=O)c3ccc4nccn4c3)CC2)c1 [N-(4-{1-[(2,5-dimethoxyphenyl)carbonyl]piperidin-4-yl}butyl)imidazo[1,2-a]pyridine-6-carboxamide]
IC50 [1]: 42.9 nM
IC50 (A2780 cells): 1.9 nM

COc1ccc(OC)c(C(=O)N2CCC(CCCCNC(=O)c3cc4ccncc4s3)CC2)c1 [N-(4-{1-[(2,5-dimethoxyphenyl)carbonyl]piperidin-4-yl}butyl)thieno[2,3-c]pyridine-2-carboxamide]
IC50 [1]: 5.5 nM
IC50 (A2780 cells): 2.9 nM

O=C(NCCCCC1CCN(C(=O)c2c(F)cccc2F)CC1)c1cc2cnccc2[nH]1 [N-(4-{1-[(2,6-difluorophenyl)carbonyl]piperidin-4-yl}butyl)-1H-pyrrolo[3,2-c]pyridine-2-carboxamide]
IC50 [1]: 7.3 nM
IC50 (A2780 cells): 1.4 nM

O=C(NCCCCC1CCN(C(=O)c2c(F)cccc2F)CC1)c1ccc2nccn2c1 [N-(4-{1-[(2,6-difluorophenyl)carbonyl]piperidin-4-yl}butyl)imidazo[1,2-a]pyridine-6-carboxamide]
IC50 [1]: 4.7 nM
IC50 (A2780 cells): 1.2 nM

O=C(NCCCCC1CCN(C(=O)c2c(F)cccc2F)CC1)c1cc2ccncc2s1 [N-(4-{1-[(2,6-difluorophenyl)carbonyl]piperidin-4-yl}butyl)thieno[2,3-c]pyridine-2-carboxamide]
IC50 [1]: 4.3 nM
IC50 (A2780 cells): 0.8 nM

COc1cccc(OC)c1C(=O)N1CCC(CCCCNC(=O)c2cc3cnccc3[nH]2)CC1 [N-(4-{1-[(2,6-dimethoxyphenyl)carbonyl]piperidin-4-yl}butyl)-1H-pyrrolo[3,2-c]pyridine-2-carboxamide]
IC50 [1]: 21.5 nM
IC50 (A2780 cells): 1.4 nM

COc1cccc(OC)c1C(=O)N1CCC(CCCCNC(=O)c2ccc3nccn3c2)CC1 [N-(4-{1-[(2,6-dimethoxyphenyl)carbonyl]piperidin-4-yl}butyl)imidazo[1,2-a]pyridine-6-carboxamide]
IC50 [1]: 28.6 nM
IC50 (A2780 cells): 1 nM

COc1cccc(OC)c1C(=O)N1CCC(CCCCNC(=O)c2cc3ccncc3s2)CC1 [N-(4-{1-[(2,6-dimethoxyphenyl)carbonyl]piperidin-4-yl}butyl)thieno[2,3-c]pyridine-2-carboxamide]
IC50 [1]: 5.6 nM
IC50 (A2780 cells): 1.2 nM

CCOc1ccccc1C(=O)N1CCC(CCCCNC(=O)c2cc3cnccc3[nH]2)CC1 [N-(4-{1-[(2-ethoxyphenyl)carbonyl]piperidin-4-yl}butyl)-1H-pyrrolo[3,2-c]pyridine-2-carboxamide]
IC50 [1]: 30.5 nM
IC50 (A2780 cells): 0.5 nM

CCOc1ccccc1C(=O)N1CCC(CCCCNC(=O)c2ccc3nccn3c2)CC1 [N-(4-{1-[(2-ethoxyphenyl)carbonyl]piperidin-4-yl}butyl)imidazo[1,2-a]pyridine-6-carboxamide]
IC50 [1]: 5.2 nM
IC50 (A2780 cells): 0.7 nM

CCOc1ccccc1C(=O)N1CCC(CCCCNC(=O)c2cc3ccncc3s2)CC1 [N-(4-{1-[(2-ethoxyphenyl)carbonyl]piperidin-4-yl}butyl)thieno[2,3-c]pyridine-2-carboxamide]
IC50 [1]: 4 nM
IC50 (A2780 cells): 0.6 nM

CCOc1ncccc1C(=O)N1CCC(CCCCNC(=O)c2cc3cnccc3[nH]2)CC1 [N-(4-{1-[(2-ethoxypyridin-3-yl)carbonyl]piperidin-4-yl}butyl)-1H-pyrrolo[3,2-c]pyridine-2-carboxamide]
IC50 [1]: 20.6 nM
IC50 (A2780 cells): 0.6 nM

CCOc1ncccc1C(=O)N1CCC(CCCCNC(=O)c2ccc3nccn3c2)CC1 [N-(4-{1-[(2-ethoxypyridin-3-yl)carbonyl]piperidin-4-yl}butyl)imidazo[1,2-a]pyridine-6-carboxamide]
IC50 [1]: 9.2 nM
IC50 (A2780 cells): 0.5 nM

Cc1cccc(C(=O)N2CCC(CCCCNC(=O)c3cc4cnccc4[nH]3)CC2)c1F [N-(4-{1-[(2-fluoro-3-methylphenyl)carbonyl]piperidin-4-yl}butyl)-1H-pyrrolo[3,2-c]pyridine-2-carboxamide]
IC50 [1]: 47.5 nM
IC50 (A2780 cells): 6.9 nM

Cc1cccc(C(=O)N2CCC(CCCCNC(=O)c3ccc4nccn4c3)CC2)c1F [N-(4-{1-[(2-fluoro-3-methylphenyl)carbonyl]piperidin-4-yl}butyl)imidazo[1,2-a]pyridine-6-carboxamide]
IC50 [1]: 22.6 nM
IC50 (A2780 cells): 12.7 nM

O=C(NCCCCC1CCN(C(=O)c2ccccc2F)CC1)c1cc2cnccc2[nH]1 [N-(4-{1-[(2-fluorophenyl)carbonyl]piperidin-4-yl}butyl)-1H-pyrrolo[3,2-c]pyridine-2-carboxamide]
IC50 [1]: 7.5 nM
IC50 (A2780 cells): 0.5 nM

O=C(NCCCCC1CCN(C(=O)c2ccccc2F)CC1)c1ccc2nccn2c1 [N-(4-{1-[(2-fluorophenyl)carbonyl]piperidin-4-yl}butyl)imidazo[1,2-a]pyridine-6-carboxamide]
IC50 [1]: 3.8 nM
IC50 (A2780 cells): 0.5 nM

O=C(NCCCCC1CCN(C(=O)c2ccccc2F)CC1)c1cc2ccncc2s1 [N-(4-{1-[(2-fluorophenyl)carbonyl]piperidin-4-yl}butyl)thieno[2,3-c]pyridine-2-carboxamide]
IC50 [1]: 8.8 nM
IC50 (A2780 cells): 0.6 nM

COc1ccccc1C(=O)N1CCC(CCCCNC(=O)c2cc3cnccc3[nH]2)CC1 [N-(4-{1-[(2-methoxyphenyl)carbonyl]piperidin-4-yl}butyl)-1H-pyrrolo[3,2-c]pyridine-2-carboxamide]
IC50 [1]: 14.4 nM
IC50 (A2780 cells): 1.9 nM

COc1ccccc1C(=O)N1CCC(CCCCNC(=O)c2cc3ccncc3s2)CC1 [N-(4-{1-[(2-methoxyphenyl)carbonyl]piperidin-4-yl}butyl)thieno[2,3-c]pyridine-2-carboxamide]
IC50 [1]: 7.7 nM
IC50 (A2780 cells): 3.3 nM

Cc1nc(C(=O)N2CCC(CCCCNC(=O)c3cc4cnccc4[nH]3)CC2)cs1 [N-(4-{1-[(2-methyl-1,3-thiazol-4-yl)carbonyl]piperidin-4-yl}butyl)-1H-pyrrolo[3,2-c]pyridine-2-carboxamide]
IC50 [1]: 69.5 nM
IC50 (A2780 cells): 25 nM

Cc1nc(C(=O)N2CCC(CCCCNC(=O)c3ccc4nccn4c3)CC2)cs1 [N-(4-{1-[(2-methyl-1,3-thiazol-4-yl)carbonyl]piperidin-4-yl}butyl)imidazo[1,2-a]pyridine-6-carboxamide]
IC50 [1]: 31.4 nM
IC50 (A2780 cells): 61.1 nM

Cc1nc(C(=O)N2CCC(CCCCNC(=O)c3cc4ccncc4s3)CC2)cs1 [N-(4-{1-[(2-methyl-1,3-thiazol-4-yl)carbonyl]piperidin-4-yl}butyl)thieno[2,3-c]pyridine-2-carboxamide]
IC50 [1]: 22.4 nM
IC50 (A2780 cells): 100 to 1000 nM

Cc1ncccc1C(=O)N1CCC(CCCCNC(=O)c2cc3cnccc3[nH]2)CC1 [N-(4-{1-[(2-methylpyridin-3-yl)carbonyl]piperidin-4-yl}butyl)-1H-pyrrolo[3,2-c]pyridine-2-carboxamide]
IC50 [1]: 21.5 nM
IC50 (A2780 cells): 1.7 nM

Cc1ncccc1C(=O)N1CCC(CCCCNC(=O)c2ccc3nccn3c2)CC1 [N-(4-{1-[(2-methylpyridin-3-yl)carbonyl]piperidin-4-yl}butyl)imidazo[1,2-a]pyridine-6-carboxamide]
IC50 [1]: 9.8 nM
IC50 (A2780 cells): 1.8 nM

O=C(NCCCCC1CCN(C(=O)c2csc(-c3ccccc3)n2)CC1)c1cc2cnccc2[nH]1 [N-(4-{1-[(2-phenyl-1,3-thiazol-4-yl)carbonyl]piperidin-4-yl}butyl)-1H-pyrrolo[3,2-c]pyridine-2-carboxamide]
IC50 [1]: 110 nM
IC50 (A2780 cells): 72.5 nM

O=C(NCCCCC1CCN(C(=O)c2csc(-c3ccccc3)n2)CC1)c1cc2ccncc2s1 [N-(4-{1-[(2-phenyl-1,3-thiazol-4-yl)carbonyl]piperidin-4-yl}butyl)thieno[2,3-c]pyridine-2-carboxamide]
IC50 [1]: 13.1 nM
IC50 (A2780 cells): 76.2 nM

O=C(NCCCCC1CCN(C(=O)c2ccc3c(c2)OCO3)CC1)c1cc2cnccc2[nH]1 [N-(4-{1-[(2H-1,3-benzodioxol-5-yl)carbonyl]piperidin-4-yl}butyl)-1H-pyrrolo[3,2-c]pyridine-2-carboxamide]
IC50 [1]: 78.3 nM
IC50 (A2780 cells): 14 nM

O=C(NCCCCC1CCN(C(=O)c2ccc3c(c2)OCO3)CC1)c1ccc2nccn2c1 [N-(4-{1-[(2H-1,3-benzodioxol-5-yl)carbonyl]piperidin-4-yl}butyl)imidazo[1,2-a]pyridine-6-carboxamide]
IC50 [1]: 21.3 nM
IC50 (A2780 cells): 29.2 nM

O=C(NCCCCC1CCN(C(=O)c2ccc3c(c2)OCO3)CC1)c1cc2ccncc2s1 [N-(4-{1-[(2H-1,3-benzodioxol-5-yl)carbonyl]piperidin-4-yl}butyl)thieno[2,3-c]pyridine-2-carboxamide]
IC50 [1]: 21.1 nM
IC50 (A2780 cells): 100 to 1000 nM

O=C(NCCCCC1CCN(C(=O)c2ccc(Cl)c(Cl)c2)CC1)c1cc2cnccc2[nH]1 [N-(4-{1-[(3,4-dichlorophenyl)carbonyl]piperidin-4-yl}butyl)-1H-pyrrolo[3,2-c]pyridine-2-carboxamide]
IC50 [1]: 93 nM
IC50 (A2780 cells): 58 nM

O=C(NCCCCC1CCN(C(=O)c2ccc(Cl)c(Cl)c2)CC1)c1ccc2nccn2c1 [N-(4-{1-[(3,4-dichlorophenyl)carbonyl]piperidin-4-yl}butyl)imidazo[1,2-a]pyridine-6-carboxamide]
IC50 [1]: 49 nM
IC50 (A2780 cells): 100 to 1000 nM

O=C(NCCCCC1CCN(C(=O)c2ccc(Cl)c(Cl)c2)CC1)c1cc2ccncc2s1 [N-(4-{1-[(3,4-dichlorophenyl)carbonyl]piperidin-4-yl}butyl)thieno[2,3-c]pyridine-2-carboxamide]
IC50 [1]: 34.5 nM
IC50 (A2780 cells): 100 to 1000 nM

O=C(NCCCCC1CCN(S(=O)(=O)c2ccc(F)c(F)c2)CC1)c1cc2cnccc2[nH]1 [N-(4-{1-[(3,4-difluorobenzene)sulfonyl]piperidin-4-yl}butyl)-1H-pyrrolo[3,2-c]pyridine-2-carboxamide]
IC50 [1]: 34.6 nM
IC50 (A2780 cells): 22.8 nM
